# What was measured:
# Aphidius rhopalosiphi = test: LR50; higher = less toxic; settings: not reported; mortality
# Typhlodromus pyri = test: LR50; higher = less toxic; settings: not reported; mortality
# Apis mellifera = settings: acute, mortality
# Canidae = settings: oral, Dog Other
# Bibionidae = settings: chronic/long-term; duration: 28 days; development
# Daphnia magna = settings: chronic/long-term; duration: 21 days; reproduction
# Folsomia candida = settings: chronic/long-term; duration: 28 days
# Oncorhynchus mykiss = settings: chronic/long-term; duration: 21 days; growth
# Hypoaspis aculeifer = settings: chronic/long-term; duration: 14 days
# Colinus virginianus = settings: acute; oral; mortality
smiles,measurement,setting,value
CC(C)c1ccc(NC(=O)N(C)C)cc1 [Isoproturon],LR50,Aphidius rhopalosiphi,> 2500 g/ha
same,LR50,Typhlodromus pyri,> 2500 g/ha
same,LD50,Apis mellifera; dermal,> 100 µg/piece
same,LD50,"Apis mellifera; oral, unspecified",> 99.2 µg/piece
same,NOAEL,"Canidae; short-term, histopathology: nonneoplastic",3.2 mg/kg-day
same,NOAEL,"Canidae; subchronic, duration: 90 days, hematological",10 mg/kg-day
same,NOEC,Bibionidae,0.344 mg/L
same,NOEC,Daphnia magna,0.12 mg/L
same,LD50,"Rattus norvegicus; acute, mortality",1830 mg/kg-day
same,NOEC,Rattus norvegicus; chronic,10 mg/kg-day
same,NOAEL,"Rattus norvegicus; chronic, duration: 2 years, histopathology: neoplastic",3.1 mg/kg-day
same,NOEC,Folsomia candida,24.3 mg/kg
same,LC50,"Tagia sp.; acute, duration: 14 days, mortality",> 500 mg/kg
same,NOEC,"Tagia sp.; chronic/long-term, duration: 8 weeks",14 mg/kg
same,LC50,"Coturnix japonica; acute, oral, diet, mortality",> 5000 mg/kg
same,NOAEL,"Coturnix japonica; reproduction developmental, reproduction",12 mg/kg-day
same,NOEC,Oncorhynchus mykiss,1 mg/L
same,NOEC,Hypoaspis aculeifer,> 459 mg/kg
same,LD50,Colinus virginianus,1400 mg/kg-day

# — EPA's ToxValDB 9.5 (doi:10.2903/j.efsa.2015.4206)
